Here are results for 14 compounds from ChEMBL document CHEMBL2062374, “Chemoenzymatic synthesis and evaluation of 3-azabicyclo[3.2.0]heptane derivatives as dopaminergic ligands” (Eur J Med Chem, 2012).

Some results are limits rather than exact numbers.

Holding throughout (type): cell-based
In one test the target is D(3) dopamine receptor (Homo sapiens, UniProt P35462). As to the kind of experiment: Displacement of [3H]raclopride from human D3 receptor expressed in HEK293 cells.
Another test concerns the target D(2) dopamine receptor (Homo sapiens, UniProt P14416). As to the kind of experiment: Displacement of [3H]raclopride from human D2L receptor expressed in HEK293 cells.
Another test addresses D(1A) dopamine receptor (Homo sapiens, UniProt P21728). As to the kind of experiment: Displacement of [3H]SCH23390 from human D1 receptor expressed in HEK293 cells.

D(1A) dopamine receptor, sequence (P21728 whole entry): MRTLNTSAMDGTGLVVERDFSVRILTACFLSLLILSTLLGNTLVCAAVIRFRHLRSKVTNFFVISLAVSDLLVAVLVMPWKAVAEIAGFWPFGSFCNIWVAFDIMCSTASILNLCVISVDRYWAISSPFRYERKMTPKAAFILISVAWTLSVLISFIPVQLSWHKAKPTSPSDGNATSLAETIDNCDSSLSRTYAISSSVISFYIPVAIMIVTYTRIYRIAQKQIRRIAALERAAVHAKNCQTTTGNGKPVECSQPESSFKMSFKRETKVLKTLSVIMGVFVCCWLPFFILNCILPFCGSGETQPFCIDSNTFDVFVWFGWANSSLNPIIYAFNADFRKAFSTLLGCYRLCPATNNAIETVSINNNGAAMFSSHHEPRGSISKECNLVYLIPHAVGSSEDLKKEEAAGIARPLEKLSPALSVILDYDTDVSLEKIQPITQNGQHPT
D(2) dopamine receptor, sequence (P14416 whole entry): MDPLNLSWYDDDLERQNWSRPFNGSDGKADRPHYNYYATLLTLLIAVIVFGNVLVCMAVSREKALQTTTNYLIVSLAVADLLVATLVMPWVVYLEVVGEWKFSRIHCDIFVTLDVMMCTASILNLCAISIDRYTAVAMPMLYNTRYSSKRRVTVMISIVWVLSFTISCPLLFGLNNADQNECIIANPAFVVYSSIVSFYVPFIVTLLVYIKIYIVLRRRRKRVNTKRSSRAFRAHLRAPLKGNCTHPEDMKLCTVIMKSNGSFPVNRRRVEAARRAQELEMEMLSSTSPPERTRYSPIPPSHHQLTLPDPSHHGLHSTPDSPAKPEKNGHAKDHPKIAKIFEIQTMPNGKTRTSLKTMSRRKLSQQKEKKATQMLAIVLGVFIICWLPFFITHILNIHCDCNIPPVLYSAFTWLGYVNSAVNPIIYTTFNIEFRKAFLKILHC
D(3) dopamine receptor, sequence (P35462 whole entry): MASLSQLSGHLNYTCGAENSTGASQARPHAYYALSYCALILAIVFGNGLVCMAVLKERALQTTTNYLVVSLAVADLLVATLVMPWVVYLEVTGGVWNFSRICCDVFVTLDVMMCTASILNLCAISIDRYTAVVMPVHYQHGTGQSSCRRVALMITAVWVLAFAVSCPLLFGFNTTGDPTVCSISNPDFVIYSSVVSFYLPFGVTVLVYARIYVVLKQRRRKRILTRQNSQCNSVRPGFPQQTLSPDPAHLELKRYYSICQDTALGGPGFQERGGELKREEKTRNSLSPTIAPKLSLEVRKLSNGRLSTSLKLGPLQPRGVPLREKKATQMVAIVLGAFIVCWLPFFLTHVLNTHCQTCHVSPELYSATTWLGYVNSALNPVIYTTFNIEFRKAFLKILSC

As for `CCN(CC)[C@@H]1[C@@H](CO)[C@H]2CN(Cc3ccccc3)[C@H](c3ccccc3)[C@H]21`, the results for the Ki at D(3) dopamine receptor, on D(2) dopamine receptor and on D(1A) dopamine receptor were 13.2 µM, 12 µM and 42 µM, respectively.

As for `CCN(CC)[C@H]1[C@H](CO)[C@@H]2CN(Cc3ccccc3)[C@@H](c3ccccc3)[C@@H]21`, the Ki on D(3) dopamine receptor turned out to be 1.3 µM; on D(2) dopamine receptor it was 1.7 µM; at D(1A) dopamine receptor, 22 µM.

For the compound `OC[C@H]1[C@H]2CN(Cc3ccccc3)[C@H](c3ccccc3)[C@H]2[C@@H]1N1CCCC1`, the results for the Ki on D(3) dopamine receptor, on D(2) dopamine receptor and at D(1A) dopamine receptor were 11 µM, 7.4 µM and 40.8 µM, respectively.

As to `OC[C@@H]1[C@@H]2CN(Cc3ccccc3)[C@@H](c3ccccc3)[C@@H]2[C@H]1N1CCCC1`, the Ki at D(3) dopamine receptor was found to be 0.28 µM; on D(2) dopamine receptor, 0.25 µM; on D(1A) dopamine receptor, 22 µM.

`CCN(CC)[C@@H]1[C@@H](CO)[C@H]2CN(Cc3ccccc3)[C@H](C)[C@H]21`: the Ki at D(3) dopamine receptor was 21 µM; on D(2) dopamine receptor it was 38 µM; on D(1A) dopamine receptor, > 100 µM.

For `CCN(CC)[C@H]1[C@H](CO)[C@@H]2CN(Cc3ccccc3)[C@@H](C)[C@@H]21`, the results for the Ki on D(3) dopamine receptor, on D(2) dopamine receptor and at D(1A) dopamine receptor were 1.77 µM, 3.9 µM and > 100 µM, respectively.

As to `C[C@@H]1[C@@H]2[C@H](CN1Cc1ccccc1)[C@H](CO)[C@H]2N1CCCC1`, the Ki on D(3) dopamine receptor is 36 µM; at D(2) dopamine receptor it was 66 µM; at D(1A) dopamine receptor, > 100 µM.

With `C[C@H]1[C@H]2[C@@H](CN1Cc1ccccc1)[C@@H](CO)[C@@H]2N1CCCC1`, the Ki at D(3) dopamine receptor is 11 µM; on D(2) dopamine receptor, 16 µM; at D(1A) dopamine receptor it was > 100 µM.

On to `CCN(CC)[C@@H]1[C@@H](CO)[C@H]2CN(Cc3ccccc3)[C@H](c3ccc(Br)cc3)[C@H]21`, for which the Ki on D(3) dopamine receptor is 7.93 µM; at D(2) dopamine receptor, 5 µM; on D(1A) dopamine receptor, 7 µM.

In the case of `CCN(CC)[C@H]1[C@H](CO)[C@@H]2CN(Cc3ccccc3)[C@@H](c3ccc(Br)cc3)[C@@H]21`, the inhibitory constant (Ki) on D(3) dopamine receptor came out at 2.14 µM; on D(2) dopamine receptor it was 2 µM; on D(1A) dopamine receptor, 8 µM.

In the case of `CCN(CC)[C@@H]1[C@@H](CO)[C@H]2CN(Cc3ccccc3)[C@H](c3ccccn3)[C@H]21`, the Ki on D(3) dopamine receptor was 36 µM; at D(2) dopamine receptor, 42 µM; on D(1A) dopamine receptor, > 100 µM.

For the compound `CCN(CC)[C@H]1[C@H](CO)[C@@H]2CN(Cc3ccccc3)[C@@H](c3ccccn3)[C@@H]21`, the Ki was 8.8 µM on D(3) dopamine receptor, 12 µM on D(2) dopamine receptor and > 100 µM on D(1A) dopamine receptor.

As for `OC[C@H]1[C@H]2CN(Cc3ccccc3)[C@H](c3ccccc3)[C@H]2[C@@H]1N1CCCCC1`, the Ki on D(3) dopamine receptor was determined as 5.3 µM; at D(2) dopamine receptor, 7 µM; at D(1A) dopamine receptor, 44 µM.

Turning to `OC[C@@H]1[C@@H]2CN(Cc3ccccc3)[C@@H](c3ccccc3)[C@@H]2[C@H]1N1CCCCC1`, the Ki is 1.5 µM on D(3) dopamine receptor, 2 µM on D(2) dopamine receptor and 49 µM on D(1A) dopamine receptor.
